These results are taken from US9328111B2, “Substituted cycloocta[5,6]pyrido[4,3,2-de]phthalazines as PARP inhibitors” (BeiGene Ltd., priority 2011, dated 2016).

Chain of Tankyrase-2 (Q9H2K2 whole entry): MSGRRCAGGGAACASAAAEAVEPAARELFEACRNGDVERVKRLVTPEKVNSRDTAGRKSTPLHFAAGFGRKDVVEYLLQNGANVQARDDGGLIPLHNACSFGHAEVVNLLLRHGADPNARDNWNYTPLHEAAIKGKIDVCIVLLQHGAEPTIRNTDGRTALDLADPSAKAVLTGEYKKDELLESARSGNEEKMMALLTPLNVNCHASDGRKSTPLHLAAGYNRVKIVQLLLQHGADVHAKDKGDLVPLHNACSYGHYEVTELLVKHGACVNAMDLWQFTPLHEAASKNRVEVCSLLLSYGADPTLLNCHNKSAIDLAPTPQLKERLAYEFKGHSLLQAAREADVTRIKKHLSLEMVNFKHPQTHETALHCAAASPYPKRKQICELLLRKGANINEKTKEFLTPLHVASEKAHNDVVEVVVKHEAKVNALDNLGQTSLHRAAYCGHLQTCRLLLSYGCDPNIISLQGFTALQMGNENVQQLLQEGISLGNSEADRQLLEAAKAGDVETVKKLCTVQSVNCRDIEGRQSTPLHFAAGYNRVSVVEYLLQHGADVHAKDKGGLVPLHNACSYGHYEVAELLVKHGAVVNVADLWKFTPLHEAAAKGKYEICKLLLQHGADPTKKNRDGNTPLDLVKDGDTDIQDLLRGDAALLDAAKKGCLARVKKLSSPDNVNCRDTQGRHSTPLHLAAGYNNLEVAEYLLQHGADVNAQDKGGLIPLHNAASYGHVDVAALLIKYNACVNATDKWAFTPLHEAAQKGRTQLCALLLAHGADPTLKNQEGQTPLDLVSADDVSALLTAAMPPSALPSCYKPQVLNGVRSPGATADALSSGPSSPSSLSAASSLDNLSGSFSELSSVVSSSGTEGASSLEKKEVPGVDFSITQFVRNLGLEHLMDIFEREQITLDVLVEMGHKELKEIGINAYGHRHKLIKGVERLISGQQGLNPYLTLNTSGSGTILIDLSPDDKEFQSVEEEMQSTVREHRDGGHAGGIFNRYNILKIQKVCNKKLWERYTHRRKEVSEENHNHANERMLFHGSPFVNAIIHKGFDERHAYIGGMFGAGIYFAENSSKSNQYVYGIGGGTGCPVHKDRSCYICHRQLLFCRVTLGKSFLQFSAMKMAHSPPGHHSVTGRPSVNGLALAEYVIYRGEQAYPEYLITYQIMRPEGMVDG

The first assay concerns PARP PARylation in HeLa cells. The experiment in a line: PARylation assay in HeLa cells after H2O2. It is filed as cell-based. As to conditions: Homo sapiens, 200 μM H2O2. The method, then:
HeLa cells were seeded into a 96-well plate with clear bottom and black wall at an initial concentration of 5000 cells/well in culture medium (100 μL of DMEM containing 10% FBS, 0.1 mg/mL penicillin-streptomycin, and 2 mML-glutamine). The plates were incubated for 4 h at 37° C. under 5% CO2 atmosphere, and then compounds were added with serial dilutions over eight points over a 0.01 nM-10 μM final concentration range in 0.1% DMSO/culture medium. The plate was then incubated for 18 h at 37° C. in 5% CO2. Then DNA damage was provoked by addition of 60 μL of H2O2 solution in PBS (final concentration 200 μM). As a negative control, cells untreated with H2O2 were used. The plate was kept at 37° C. for 5 min. Then the medium was gently removed by plate inversion, and the cells were fixed by addition of ice-cold MeOH (100 μL/well) and kept at −20° C. for 20 min. After removal of the fixative by plate inversion and washing 10 times with PBS (120 μL), the detection buffer (50 μL/well, containing PBS, Tween (0.1%), and BSA (1 mg/mL)) together with the primary PAR mAb (Alexis ALX-804-220, 1:2000), the secondary anti-mouse Alexa Fluor 488 antibody (MolecularProbes A11029, 1:2000), and nuclear dye DAPI (Molecular Probes D3571, 150 nM) were added. Following overnight incubation at 4° C. in the dark, removal of the solution, and washing 6 times with PBS (120 μL), the plate was read on an ArrayScan VTI (ThermoFisher). Monitoring for PAR polymer was by detection of Alexa488 at XF100_485_20, exposure time of 0.05 s, and identification of the nuclei was by tracking DAPI with XF100_386_23, exposure time of 0.01 s. The mean value of total intensity of cells was calculated by measuring the average of total intensity of nuclei over the total number of DAPI-labeled nuclei. The EC50 was determined on the basis of the residual enzyme activity in the presence of increasing PARPi concentration.
`O=c1[nH]nc2c3c(cccc13)NC1=C2CCN(Cc2ccccc2)C1` [Example 18, 9-benzyl-8,9,10,11-tetrahydro-2H-phthalazino[8,1-bc][1,7]naphthyridin-3(7H)-one] registered an EC50 of 9.7 nM.

With `O=c1[nH]nc2c3c(cccc13)NC1=C2CCCC1` [Example 2, 8,9,10,11-Tetrahydro-2H-pyridazino[5,4,3-kl]acridin-3 (7H)-one], a half-maximal response (EC50) required 1.2 nM.

Regarding `O=c1[nH]nc2c3c(c(Cl)ccc13)NC1=C2CCCC1` [Example 9, 6-Chloro-8,9,10,11-tetrahydro-2H-pyridazino[5,4,3-kl]acridin-3(7H)-one], a half-maximal effect (EC50) was put at 43.2 nM.

Compound `O=c1[nH]nc2c3c(cccc13)NC1=C2c2ccccc2CC1` [Example 12, 8,9-Dihydro-2H-benzo[a]pyridazino[5,4,3-kl]acridin-3(7H)-one] had an EC50 of 6.8 nM.

`O=c1[nH]nc2c3c(cccc13)NC1=C2CCC1` [Example 10, 7,8,9,10-Tetrahydrocyclopenta[5,6]pyrido[4,3,2-de]phthalazin-3(2H)-one] returned an EC50 of 4.6 nM.

Compound `CC1(C(=O)N2CCC3=C(C2)Nc2cccc4c(=O)[nH]nc3c24)CC1` [Example 16, 9-(1-Methylcyclopropanecarbonyl)-8,9,10,11-tetrahydro-2H-phthalazino[8,1-bc][1,7]naphthyridin-3(7H)-one] returned a 50% effective concentration (EC50) of 5.4 nM.

In turn, `CC(C)(NC(=O)OCc1ccccc1)C(=O)N1CCC2=C(C1)Nc1cccc3c(=O)[nH]nc2c13` [Example 15, Benzyl(2-methyl-1-oxo-1-(3-oxo-10,11-dihydro-2H-phthalazino[8,1-bc][1,7]naphthyridin-9(3H,7H,8H)-yl)propan-2-yl)carbamate] came in with a half-maximal effective concentration (EC50) of 269 nM. Compared with the last compound, the EC50 is about 50-fold higher.

Take `Cc1ccc2c(=O)[nH]nc3c2c1NC1=C3CCCC1` [Example 5, 6-Methyl-8,9,10,11-tetrahydro-2H-pyridazino[5,4,3-kl]acridin-3(7H)-one]: the response was half-maximal at 477 nM (EC50).

In the case of `O=c1[nH]nc2c3c(cccc13)NC1=C2CCNC1` [Example 14, 8,9,10,11-Tetrahydro-2H-phthalazino[8,1-bc][1,7]naphthyridin-3 (7H)-one], it took 14 nM to reach a half-maximal effect (EC50).

`CC(C)(C)OC(=O)N1CCC2=C(C1)Nc1cccc3c(=O)[nH]nc2c13` [Example 13, Tert-butyl 3-oxo-7,8,10,11-tetrahydro-2H-phthalazino[8,1-bc][1,7]naphthyridine-9(3H)-carboxylate]: the midpoint of the response, the EC50, lay at 0.7 nM.

The compound `O=c1[nH]nc2c3c(c(Br)ccc13)NC1=C2CCCCC1` [Example 6, 6-Bromo-7,8,9,10,11,12-hexahydrocyclohepta[5,6]pyrido[4,3,2-de]phthalazin-3(2H)-one] returned an EC50 of 139 nM.

Compound `CC1(C)C(C(=O)N2CCC3=C(C2)Nc2cccc4c(=O)[nH]nc3c24)C1(C)C` [Example 17, 9-(2,2,3,3-Tetramethylcyclopropanecarbonyl)-8,9,10,11-tetrahydro-2H-phthalazino[8,1-bc][1,7]naphthyridin-3(7H)-one] came in with a concentration for a half-maximal effect (EC50) of 0.9 nM.

For `O=c1[nH]nc2c3c(cccc13)NC1=C2CCCCCC1` [Example 3, 8,9,10,11,12,13-Hexahydro-2H-cycloocta[5,6]pyrido[4,3,2-de]phthalazin-3(7H)-one], a half-maximal effect (EC50) was put at 0.6 nM. This EC50 is about 1.5-fold lower than that of the compound before.

`O=c1[nH]nc2c3c(cccc13)NC1=C2CCCCC1` [Example 4, 7,8,9,10,11,12-Hexahydrocyclohepta[5,6]pyrido[4,3,2-de]phthalazin-3(2H)-one] showed an EC50 of 0.75 nM.

Consider `O=c1[nH]nc2c3c(c(Cl)ccc13)NC1=C2CCCCC1` [Example 8, 6-Chloro-7,8,9,10,11,12-hexahydrocyclohepta[5,6]pyrido[4,3,2-de]phthalazin-3(2H)-one], for which the EC50 is 43.2 nM.

On to `O=c1[nH]nc2c3c(c(Br)ccc13)NC1=C2CCCC1` [Example 7, 6-Bromo-8,9,10,11-tetrahydro-2H-pyridazino[5,4,3-kl]acridin-3(7H)-one], for which the EC50 was 32 nM.

For the compound `CC1(C)CCC2=C(C1)c1n[nH]c(=O)c3cccc(c13)N2` [Example 1, 10,10-Dimethyl-8,9,10,11-tetrahydro-2H-pyridazino[5,4,3-kl]acridin-3(7H)-one], the half-maximal effective concentration (EC50) was 0.8 nM.

Another assay concerns the target Tankyrase-2 (Homo sapiens (Human), UniProt Q9H2K2). The experiment in a line: biochemical. As to conditions: read-out: Tankyrase-2 Inhibition @ 50 nM.
Take `O=c1[nH]nc2c3c(c(Cl)ccc13)NC1=C2CCCC1` [Example 9, 6-Chloro-8,9,10,11-tetrahydro-2H-pyridazino[5,4,3-kl]acridin-3(7H)-one]: the inhibition at 0.05 µM is 14.1%.

Turning to `O=c1[nH]nc2c3c(cccc13)NC1=C2c2ccccc2CC1` [Example 12, 8,9-Dihydro-2H-benzo[a]pyridazino[5,4,3-kl]acridin-3(7H)-one], the inhibition at 0.05 µM was 14.3%.

For `O=c1[nH]nc2c3c(c(Cl)ccc13)NC1=C2CCCCC1` [Example 8, 6-Chloro-7,8,9,10,11,12-hexahydrocyclohepta[5,6]pyrido[4,3,2-de]phthalazin-3(2H)-one], the inhibition at 0.05 µM is 2.3%.
